Assay results published in patent publication US9469615B2, “Quinoxalines and AZA-quinoxalines as CRTH2 receptor modulators” (Merck Sharp & Dohme Corp., priority 2010, dated 2016).

The compounds below were run against T1, hCRTH2 (Homo sapiens, UniProt Q9Y5Y4) (assay: Radioligand binding assay ([3H]PGD2 competition, HEK-hCRTH2 membranes)). Details: [3H]PGD2 binding, values in text.
T1 construct: expressed in transfected cells; host or cells: HEK (human embryonic kidney) cells expressing hCRTH2; membrane preparation
T1 sequence (Q9Y5Y4 1-395): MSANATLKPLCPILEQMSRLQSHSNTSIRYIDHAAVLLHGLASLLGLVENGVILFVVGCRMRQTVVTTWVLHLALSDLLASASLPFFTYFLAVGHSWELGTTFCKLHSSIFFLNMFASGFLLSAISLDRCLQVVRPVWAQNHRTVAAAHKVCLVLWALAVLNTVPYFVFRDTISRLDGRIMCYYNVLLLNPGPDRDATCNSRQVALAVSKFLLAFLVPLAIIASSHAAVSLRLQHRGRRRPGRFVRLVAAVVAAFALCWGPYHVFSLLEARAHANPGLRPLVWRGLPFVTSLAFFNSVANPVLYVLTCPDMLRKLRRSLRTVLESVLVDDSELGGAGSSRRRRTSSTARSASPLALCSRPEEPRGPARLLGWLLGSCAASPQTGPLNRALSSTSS
Summary of the method: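 Using membranes of an HEK line stably carrying hCRTH2, ligands were tested against [3H]PGD2 (3.0 nM) in pH 7.4 Tris buffer containing 2 mM MnCl2 and 1 mM EDTA. After one hour at room temperature, filters were washed cold and counted.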

Ki [nM]	Structure (SMILES)
4.2	C[C@@H](CCc1nc2cc(C(=O)N[C@H](C)c3ccc(F)cc3)ccc2nc1-c1ccc(F)cc1)CC(=O)O [compound 438, (S)-5-(3-(4-fluorophenyl)-7-(((R)-1-(4-fluorophenyl)ethyl)carbamoyl)quinoxalin-2-yl)-3-methylpentanoic acid]

Same assay, conditions: [3H]PGD2 competition, Table B

Structure (SMILES)	Ki [nM]
C[C@H](NC(=O)c1ccc2nc(-c3ccc(Cl)cc3)c(CCCCC(=O)O)nc2c1)c1ccc(F)cn1 [compound 435, (S)-5-(3-(4-chlorophenyl)-7-((1-(5-fluoropyridin-2-yl)ethyl)carbamoyl)quinoxalin-2-yl)pentanoic acid]	0.1 to 2
O=C(O)CCCCc1nc2cc(C(=O)N3CCn4c(nnc4C(F)(F)F)C3)ccc2nc1-c1ccc(Cl)cc1 [compound 436, 5-(3-(4-chlorophenyl)-7-(3-(trifluoromethyl)-5,6,7,8-tetrahydro-[1,2,4]triazolo[4,3-a]pyrazine-7-carbonyl)quinoxalin-2-yl)pentanoic acid]	20.1 to 200
C[C@H](CCc1nc2cc(C(=O)N[C@@H]3CCCc4ccccc43)ccc2nc1-c1ccc(F)cc1)CC(=O)O [compound 439, (R)-5-(3-(4-fluorophenyl)-7-(((R)-1,2,3,4-tetrahydronaphthalen-1-yl)carbamoyl)quinoxalin-2-yl)-3-methylpentanoic acid]	2.1 to 20
C[C@@H](CCc1nc2cc(C(=O)N[C@@H]3CCCc4ccccc43)ccc2nc1-c1ccc(F)cc1)CC(=O)O [compound 440, (S)-5-(3-(4-fluorophenyl)-7-(((R)-1,2,3,4-tetrahydronaphthalen-1-yl)carbamoyl)quinoxalin-2-yl)-3-methylpentanoic acid]	0.1 to 2
C[C@H](CCc1nc2cc(C(=O)N[C@H](C)c3ccc(F)cc3)ccc2nc1-c1ccc(Cl)cc1)CC(=O)O [compound 441, (R)-5-(3-(4-chlorophenyl)-7-(((R)-1-(4-fluorophenyl)ethyl)carbamoyl)quinoxalin-2-yl)-3-methylpentanoic acid]	2.1 to 20
Cc1ccc(CNC(=O)c2ccc3nc(-c4ccccc4)c(CCCC(F)(F)C(=O)O)nc3c2)cc1 [compound 444]	20.1 to 200
O=C(O)Cc1cc(F)cc(CCc2nc3cc(C(=O)N4CCN(c5ccccc5)CC4)ccc3nc2-c2ccc(Cl)cc2)c1 [compound 445]	2.1 to 20
O=C(O)Cc1cc(F)cc(CCc2nc3cc(C(=O)NCc4ccc(Cl)cc4)ccc3nc2-c2ccc(Cl)cc2)c1 [compound 446]	2.1 to 20
CN(Cc1ccccc1)C(=O)c1ccc2nc(-c3ccc(Cl)cc3)c(CCc3cc(F)cc(CC(=O)O)c3)nc2c1 [compound 448, 2-(3-(2-(7-(benzyl(methyl)carbamoyl)-3-(4-chlorophenyl)quinoxalin-2-yl)ethyl)-5-fluorophenyl) acetic acid]	0.1 to 2
O=C(O)Cc1cc(F)cc(CCc2nc3cc(C(=O)N4CC(c5ccc(F)c(F)c5)C4)ccc3nc2-c2ccc(Cl)cc2)c1 [compound 452, 2-(3-(2-(3-(4-chlorophenyl)-7-(3-(3,4-difluorophenyl)azetidine-l-carbonyl)quinoxalin-2-yl)ethyl)-5-fluorophenyl) aceticacid]	2.1 to 20
CC(CCCc1nc2cc(C(=O)N[C@@H]3CCCc4ccccc43)ccc2nc1-c1ccc(F)cc1)C(=O)O (stereo partly drawn) [compound 454]	2.1 to 20
CC(CCCc1nc2cc(C(=O)N[C@@H]3CCc4cc(F)ccc43)ccc2nc1-c1ccc(F)cc1)C(=O)O (stereo partly drawn) [compound 457, 5-(7-(((R)-5-fluoro-2,3-dihydro-1H-inden-1-yl)carbamoyl)-3-(4-fluorophenyl)quinoxalin-2-yl)-2-methylpentanoic acid]	0.1 to 2
CC(CCCc1nc2cc(C(=O)N[C@@H]3CCCc4cc(F)ccc43)ccc2nc1-c1ccccc1)C(=O)O (stereo partly drawn) [compound 459, 5-(7-(((R)-6-fluoro-1,2,3,4-tetrahydronaphthalen-1-yl)carbamoyl)-3-phenylquinoxalin-2-yl)-2-methylpentanoic acid]	2.1 to 20
CC(CCCc1nc2cc(C(=O)N[C@H](C)c3ccc(Cl)cc3)ccc2nc1-c1ccccc1)C(=O)O (stereo partly drawn) [compound 460, 5-(7-(((R)-1-(4-chlorophenyl)ethyl)carbamoyl)-3-3-phenylquinoxalin-2-yl)-2-methylpentanoic acid]	2.1 to 20
CC(CCCc1nc2cc(C(=O)N[C@H](C)c3ccc(F)cc3)ccc2nc1-c1ccccc1)C(=O)O (stereo partly drawn) [compound 461, 5-(7-(((R)-1-(4-fluorophenyl)ethyl)carbamoyl)-3-phenylquinoxalin-2-yl)-2-methylpentanoic acid]	2.1 to 20
CC(CCCc1nc2cc(C(=O)N3CCN(c4ccccc4)CC3)ccc2nc1-c1ccccc1)C(=O)O (stereo not drawn) [compound 462, 2-methyl-5-(3-phenyl-7-(4-phenylpiperazine-1-carbonyl)quinoxalin-2-yl)pentanoic acid]	2.1 to 20
CC(CCCc1nc2cc(C(=O)N[C@@H]3C[C@H]3c3ccccc3)ccc2nc1-c1ccccc1)C(=O)O (stereo partly drawn) [compound 463, 2-methyl-5-(3-phenyl-7-(((1R,2S)-2-phenylcyclopropyl)carbamoyl)quinoxalin-2-yl) pentanoic acid]	2.1 to 20
C[C@@H](NC(=O)c1ccc2nc(-c3ccccc3)c(CCCC(F)(F)C(=O)O)nc2c1)c1ccc(Cl)cc1 [compound 464, (R)-5-(7-((1-(4-chlorophenyl)ethyl)carbamoyl)-3-phenylquinoxalin-2-yl)-2,2-difluoropentanoic acid]	20.1 to 200
O=C(N[C@@H]1CCCc2cc(F)ccc21)c1ccc2nc(-c3ccc(F)cc3)c(CCCC(F)(F)C(=O)O)nc2c1 [compound 465, (R)-2,2-difluoro-5-(7-((6-fluoro-1,2,3,4-tetrabydronaphthalen-1-yl)carbamoyl)-3-(4-fluorophenyl)quinoxalin-2-yl)pentanoic acid]	2.1 to 20
O=C(N[C@@H]1CCCc2ccccc21)c1ccc2nc(-c3ccccc3)c(CCCC(F)(F)C(=O)O)nc2c1 [compound 466, (R)-2,2-difluoro-5-(3-phenyl-7-((1,2,3,4-tetahydronaphthalen-1-yl)carbamoyl)quinoxalin-2-yl)pentanoic acid]	2.1 to 20

Now from value to compound:

Ki [nM]	Structure (SMILES)
20.1 to 200	C[C@H](CCc1nc2cc(C(=O)N[C@H](C)c3ccc(F)cc3)ccc2nc1-c1ccc(F)cc1)CC(=O)O [compound 437, (R)-5-(3-(4-fluorophenyl)-7-(((R)-1-(4-fluorophenyl)ethyl)carbamoyl)quinoxalin-2-yl)-3-methylpentanoic acid]
2.1 to 20	C[C@@H](CCc1nc2cc(C(=O)N[C@H](C)c3ccc(F)cc3)ccc2nc1-c1ccc(F)cc1)CC(=O)O [compound 438, (S)-5-(3-(4-fluorophenyl)-7-(((R)-1-(4-fluorophenyl)ethyl)carbamoyl)quinoxalin-2-yl)-3-methylpentanoic acid]
0.1 to 2	C[C@@H](CCc1nc2cc(C(=O)N[C@H](C)c3ccc(F)cc3)ccc2nc1-c1ccc(Cl)cc1)CC(=O)O [compound 442]
2.1 to 20	O=C(NCc1ccccc1)c1ccc2nc(-c3ccc(F)cc3)c(CCCC(F)(F)C(=O)O)nc2c1 [compound 443, 5-(7-(benzylcarbamoyl)-3-(4-fluorophenyl)quinoxalin-2-yl)-2,2-difluoropentanoic acid]
0.1 to 2	CN(Cc1ccc(F)cc1)C(=O)c1ccc2nc(-c3ccc(Cl)cc3)c(CCc3cc(F)cc(CC(=O)O)c3)nc2c1 [compound 447, 2-(3-(2-(3-(4-chlorophenyl)-7-((4-fluorobenzyl)(methyl)carbamoyl)quinoxalin-2-yl)ethyl)-5-fluorophenyl)acetic acid]
2.1 to 20	C[C@@H](NC(=O)c1ccc2nc(-c3ccc(Cl)cc3)c(CCc3cc(F)cc(CC(=O)O)c3)nc2c1)c1ccc(F)cc1 [compound 449]
2.1 to 20	C[C@H](NC(=O)c1ccc2nc(-c3ccc(Cl)cc3)c(CCc3cc(F)cc(CC(=O)O)c3)nc2c1)c1ccc(F)cc1 [compound 450, (S)-2-(3-(2-(3-(4-chlorophenyl)-7-((1-(4-fluorophenyl)ethyl)carbamoyl)quinoxalin-2-yl)ethyl)-5-fluorophenyl)acetic acid]
2.1 to 20	N#Cc1ccc(CNC(=O)c2ccc3nc(-c4ccc(Cl)cc4)c(CCc4cc(F)cc(CC(=O)O)c4)nc3c2)cc1 [compound 451, 2-(3-(2-(3-(4-chlorophenyl)-7-((4-cyanobenzyl)carbamoyl)quinoxalin-2-yl)ethyl)-5-fluorophenyl)acetio acid]
2.1 to 20	CC(CCCc1nc2cc(C(=O)N[C@@H]3CCCc4ccccc43)ccc2nc1-c1ccccc1)C(=O)O (stereo partly drawn) [compound 453, 2-methyl-5-(3-phenyl-7-(((R)-1-yl)carbamoyl)quinoxalin-2-yl)pentanoic acid]
2.1 to 20	CC(CCCc1nc2cc(C(=O)N[C@@H]3CCCc4cc(Cl)ccc43)ccc2nc1-c1ccc(F)cc1)C(=O)O (stereo partly drawn) [compound 455, 5-(7-(((R)-6-chloro-1,2,3,4-tetrahydronaphthalen-1-yl)carbamoyl)-3-(4-fluorophenyl)quinoxalin-2-yl)-2-methylpentanoic acid]
2.1 to 20	CC(CCCc1nc2cc(C(=O)N[C@@H]3CCc4cc(Cl)ccc43)ccc2nc1-c1ccc(F)cc1)C(=O)O (stereo partly drawn) [compound 456, 5-(7-(((R)-5-chloro-2,3-dihydro-1H-inden-1-yl)carbamoyl)-3-(4-fluorophenyl)quinoxalin-2-yl)-2-methylpentanoic acid]
2.1 to 20	CC(CCCc1nc2cc(C(=O)N[C@@H]3CCCc4cc(Cl)ccc43)ccc2nc1-c1ccccc1)C(=O)O (stereo partly drawn) [compound 458, 5-(7-(((R)-6-chloro-1,2,3,4-tetrahydronaphthalen-1-yl)carbamoyl)-3-phenylquinoxalin-2-yl)-2-methylpentanoic acid]
